One series relates to mammalian cell lines. The settings on record: cited from earlier work.
The next series relates to Pneumocystis. The settings on record: cited from earlier work.
Series [1] has as its target T1, hERG (Homo sapiens, UniProt Q12809). Kind of series: Immunofluorescence microscopy of hERG localization in HEK-hERG cells. The class given is cell-based. The settings on record: 24 h, pentamidine 10 μM, analogues 10 μM. For orientation: The hERG channel carries a current that helps repolarise heart muscle cells.
The target of series [2] is T1, hERG. Kind of series: Western blot of hERG maturation. It is filed as cell-based. The settings on record: 24 h, HEK-hERG; for hERG maturation (mature/immature ratio), dose–response: 0.5–20 μM.

Where two headings read alike, the source gives them in different places.

The source of these data is paper PMC9082326 (RSC Advances, 2019).

T1 sequence (Q12809 whole entry): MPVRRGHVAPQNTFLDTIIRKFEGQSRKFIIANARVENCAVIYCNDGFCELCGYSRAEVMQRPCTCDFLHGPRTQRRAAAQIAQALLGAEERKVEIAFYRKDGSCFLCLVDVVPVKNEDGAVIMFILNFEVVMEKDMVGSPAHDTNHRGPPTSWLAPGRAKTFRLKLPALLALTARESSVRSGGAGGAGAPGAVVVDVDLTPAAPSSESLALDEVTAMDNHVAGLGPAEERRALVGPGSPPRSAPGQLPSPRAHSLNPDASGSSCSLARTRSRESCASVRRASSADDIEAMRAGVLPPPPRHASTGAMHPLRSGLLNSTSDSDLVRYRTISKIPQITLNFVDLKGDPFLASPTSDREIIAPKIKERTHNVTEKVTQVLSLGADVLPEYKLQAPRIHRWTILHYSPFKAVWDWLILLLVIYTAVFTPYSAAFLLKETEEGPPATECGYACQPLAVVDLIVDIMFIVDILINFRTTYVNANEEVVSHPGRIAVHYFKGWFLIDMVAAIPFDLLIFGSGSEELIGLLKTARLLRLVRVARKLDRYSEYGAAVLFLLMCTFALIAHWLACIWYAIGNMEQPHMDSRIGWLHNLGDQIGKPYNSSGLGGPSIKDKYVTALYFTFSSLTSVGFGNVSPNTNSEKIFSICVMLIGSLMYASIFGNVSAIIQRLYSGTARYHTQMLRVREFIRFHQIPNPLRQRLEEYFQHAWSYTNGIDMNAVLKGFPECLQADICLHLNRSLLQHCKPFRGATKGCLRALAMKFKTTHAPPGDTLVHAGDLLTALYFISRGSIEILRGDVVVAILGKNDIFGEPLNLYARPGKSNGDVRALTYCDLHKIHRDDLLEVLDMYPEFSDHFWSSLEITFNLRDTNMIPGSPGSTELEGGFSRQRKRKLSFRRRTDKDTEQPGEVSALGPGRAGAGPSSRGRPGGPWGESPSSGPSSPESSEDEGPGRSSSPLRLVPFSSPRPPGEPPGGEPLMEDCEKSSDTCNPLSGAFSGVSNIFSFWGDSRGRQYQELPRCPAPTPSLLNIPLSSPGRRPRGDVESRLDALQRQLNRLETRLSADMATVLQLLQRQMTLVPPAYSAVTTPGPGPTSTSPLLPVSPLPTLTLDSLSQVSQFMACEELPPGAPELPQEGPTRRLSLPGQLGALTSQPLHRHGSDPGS

Consider `Cc1cc(C(=N)N)cc(C)c1OCCN(CCOc1c(C)cc(C(=N)N)cc1C)S(=O)(=O)c1ccccc1.Cl.Cl` [3-phenylsulfonyl-1,5-bis(4-amidino-2,6-dimethylphenoxy)-3-azapentane dihydrochloride, reference compound], for which the cytotoxicity entry in the series on mammalian cell lines is on record as “very low cytotoxicity”. In the series on Pneumocystis, the anti-Pneumocystis activity entry is reported as “promising activity”. In the case of `Cl.Cl.N=C(N)c1ccc(SCCOCCSc2ccc(C(=N)N)cc2)cc1` [Compound 2, 1,5-bis[4-(amidino)phenylthio]-3-oxapentane dihydrochloride], the “subcellular localization / membrane expression of hERG” value on hERG [1] is “pattern comparable with control cells and clear membrane staining was detected”. Also, the “hERG maturation (mature/immature ratio), dose–response” value at hERG [2] is “dose-dependently decreased”.

Take `CN(CCOc1ccc(NS(C)(=O)=O)cc1)CCc1ccc(NS(C)(=O)=O)cc1` [Dofetilide, reference compound]: at hERG [2] (pentamidine 10 μM, dofetilide 1 μM, analogues 1 and 10 μM), the “hERG maturation (mature/immature ratio)” value is given as “increases”.

`Cl.Cl.c1cc(C2=NCCN2)ccc1OCCSCCOc1ccc(C2=NCCN2)cc1` [Compound 4, 1,5-bis[4-(4,5-dihydro-2-imidazolyl)phenoxy]-3-thiapentane dihydrochloride]: the cytotoxicity entry in the series with mammalian cell lines (mammalian cell lines) was “less or moderate cytotoxicity”. With `Cl.Cl.N=C(N)c1ccc(OCCSCCOc2ccc(C(=N)N)cc2)cc1` [Compound 1, 1,5-bis(4-amidinophenoxy)-3-thiapentane dihydrochloride], at hERG [1], the “subcellular localization / membrane expression of hERG” value is “pattern comparable with control cells and clear membrane staining was detected”. Also, in the series on mammalian cell lines (mammalian cell lines), the cytotoxicity result is listed as “less or moderate cytotoxicity”. Moreover, on hERG [2], the “hERG maturation (mature/immature ratio), dose–response” value is “dose-dependently decreased”.
